Results published in patent US20250136570A1 (Tango Therapeutics, Inc., priority 2021, published 2025).

Key:
Recombinant HDAC1 = Recombinant HDAC1 (Homo sapiens (Human), UniProt Q13547); test: HDAC1 inhibition, Fluor de Lys fluorescent enzyme assay; type: biochemical; conditions: 3 hours pre-incubation at room temp; 6 nM enzyme; 16 μM Fluor de Lys substrate; duplicate
Text: (§1) Recombinant HDAC1 (cat #: 50051) and HDAC3/NCor2 (cat #: 50003) enzymes were purchased from BPS Bioscience (San Diego, CA, US). Assay reagents for the detection of HDAC enzyme activity (Fluor de Lys®—Green substrate and Developer kits) were purchased from Enzo Life Science (Farmingdale, NY, US). Plates used to conduct the enzyme reaction were Proxiplate-384 (cat #: 6008280) Plus from PerkinElmer (Waltham, MA, US). TSA, an HDAC inhibitor, was purchased from Enzo Life Science (cat #BML-GR309-9090) The remainder of the reagents used to prepare the assay buffer were purchased from Sigma-Aldrich (St Louis, MO, US). Unless stated otherwise, HDAC1 and 3 assays were conducted in 50 mM Tris buffer, pH 8, 137 mM NaCl, 2.7 mM KCl, 0.01% BSA.
(§2) IC50 determination for HDAC1 and HDAC3—Prior to adding reagents, 50 nL/well of compound were added to Proxiplates using an Echo dispenser instrument (Beckman Coulter, CA, US). After addition of compound, 2.5 μL/well of 2× enzyme solution was added and the enzyme was pre-incubated with compound for 3 hours at room temp. (˜22° C.). After the pre-incubation period, the enzyme reaction was initiated by adding 2.5 μL/well of 2× Fluor de Lys® substrate solution. The assay reaction was stopped after one hour by adding 5 μl/well of a 0.66× Developer solution containing TSA (3.2 μM). The final product of the enzyme reaction was read using a Spectramax plate reader instrument (Molecular Devices, CA, US) using a fluorescent readout (Ex 360 nm/Em 460 nm). The final enzyme concentrations in the assay buffer for HDAC1 and 3 were 6 and 1.2 nM, respectively. The final Fluor de Lys® substrate concentration in the assay buffer was 16 μM for all HDAC enzymes. IC50 values were determined using the following equation: […]
(§3) Where Efree and Eo are the free and total amount of HDAC enzyme in the reaction mixture, n is the hill coefficient, I is the free inhibitor concentration, and IC50 is the measure of the potency equivalent to the inhibitor concentration that leads to a 50% occupancy of the total enzyme. Each data was generated in duplicate.

HDAC3/NCor2 = HDAC3/NCor2 (Homo sapiens (Human), UniProt O15379); test: HDAC3 inhibition, Fluor de Lys fluorescent enzyme assay; type: biochemical; conditions: 3 hours pre-incubation at room temp; 1.2 nM enzyme; 16 μM Fluor de Lys substrate; duplicate
Sequence of HDAC3/NCor2 (O15379 whole entry): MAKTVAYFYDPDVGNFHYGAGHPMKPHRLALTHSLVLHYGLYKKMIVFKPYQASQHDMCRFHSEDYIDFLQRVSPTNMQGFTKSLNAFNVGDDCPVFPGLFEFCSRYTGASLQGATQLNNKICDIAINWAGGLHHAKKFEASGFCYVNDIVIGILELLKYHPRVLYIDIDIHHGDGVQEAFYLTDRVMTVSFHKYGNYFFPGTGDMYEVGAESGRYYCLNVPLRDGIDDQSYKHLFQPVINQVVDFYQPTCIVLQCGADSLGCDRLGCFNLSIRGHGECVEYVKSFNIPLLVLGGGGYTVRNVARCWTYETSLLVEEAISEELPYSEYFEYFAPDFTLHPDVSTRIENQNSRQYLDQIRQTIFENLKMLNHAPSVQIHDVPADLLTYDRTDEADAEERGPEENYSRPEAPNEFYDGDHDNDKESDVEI
Sequence of HDAC3/NCor2 (Q9Y618 395-489 partner): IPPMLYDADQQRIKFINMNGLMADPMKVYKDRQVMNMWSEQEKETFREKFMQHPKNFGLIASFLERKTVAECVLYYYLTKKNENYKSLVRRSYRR
Text: as §1, §2, §3

Sequence of Recombinant HDAC1 (Q13547 whole entry): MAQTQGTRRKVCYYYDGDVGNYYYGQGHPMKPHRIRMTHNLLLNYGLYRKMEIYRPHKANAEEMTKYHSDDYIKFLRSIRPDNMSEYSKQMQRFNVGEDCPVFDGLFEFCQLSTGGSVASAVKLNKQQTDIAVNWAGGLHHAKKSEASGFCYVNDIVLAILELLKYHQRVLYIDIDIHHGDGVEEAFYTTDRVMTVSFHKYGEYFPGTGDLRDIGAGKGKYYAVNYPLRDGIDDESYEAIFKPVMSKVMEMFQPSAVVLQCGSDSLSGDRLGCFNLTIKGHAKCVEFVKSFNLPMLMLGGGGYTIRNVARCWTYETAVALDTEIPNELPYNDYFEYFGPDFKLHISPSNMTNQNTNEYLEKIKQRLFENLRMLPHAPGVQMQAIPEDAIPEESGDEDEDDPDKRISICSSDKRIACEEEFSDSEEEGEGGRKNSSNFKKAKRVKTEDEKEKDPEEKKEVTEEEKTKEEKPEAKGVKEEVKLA

| Compound | IC50 (Recombinant HDAC1) [nM] | IC50 (HDAC3/NCor2) [nM] |
| --- | --- | --- |
| CS(=N)(=O)Cc1ccc2sc(C(=O)Nc3cc(-c4ccc(F)cc4)ccc3N)cc2c1 (stereo not shown) [Compound 167, N-[2-amino-5-(4-fluorophenyl)phenyl]-5-[(methylsulfonimidoyl)methyl]benzothiophene-2-carboxamide] | < 100 | 500 to 2000 |
| CC(O)c1ccc(-c2ccc(N)c(NC(=O)c3ccc(S(C)(=N)=O)cc3)c2)s1 (stereo not shown) [Compound 255, N-[2-amino-5-[5-(1-hydroxyethyl)-2-thienyl]phenyl]-4-(methylsulfonimidoyl)benzamide] | < 100 | > 2000 |
| N=S(=O)(c1ccc(C(=O)Nc2cc(-c3ccc(F)cc3)ccc2N)cc1)c1ccc(C(F)(F)F)cc1 (stereo not shown) [Compound 256, N-[2-amino-5-(4-fluorophenyl)phenyl]-4-[[4-(trifluoromethyl)phenyl]sulfonimidoyl]benzamide] | < 100 | > 2000 |
| C[S@](=N)(=O)c1ccc(C(=O)Nc2cc(-c3cccs3)ccc2N)cc1 (single isomer, unassigned) [Compound 106] | < 100 | 500 to 2000 |
| Cc1ccc(S(=N)(=O)c2ccc(C(=O)Nc3cc(-c4ccc(F)cc4)ccc3N)cc2)nc1 (stereo not shown) [Compound 231, N-[2-amino-5-(4-fluorophenyl)phenyl]-4-[(5-methyl-2-pyridyl)sulfonimidoyl]benzamide] | < 100 | 500 to 2000 |
| CS(=N)(=O)c1ccc(C(=O)Nc2cc(-c3ccc(F)s3)ccc2N)nn1 (stereo not shown) [Compound 152, N-[2-amino-5-(5-fluoro-2-thienyl)phenyl]-6-(methylsulfonimidoyl)pyridazine-3-carboxamide] | < 100 | 100 to 500 |
| Cc1ncc(S(=N)(=O)c2ccc(C(=O)Nc3cc(-c4ccc(F)cc4)ccc3N)cc2)cn1 (stereo not shown) [Compound 235, N-[2-amino-5-(4-fluorophenyl)phenyl]-4-[(2-methylpyrimidin-5-yl)sulfonimidoyl]benzamide] | < 100 | 500 to 2000 |
| N=S(=O)(c1ccc(C(=O)Nc2cc(-c3ccc(F)s3)ccc2N)cc1)C1CC1 (racemic) [Compound 127, rac-N-[2-amino-5-(5-fluoro-2-thienyl)phenyl]-4-(cyclopropylsulfonimidoyl)benzamide] | < 100 | 500 to 2000 |
| CS(=N)(=O)c1ccc(C(=O)Nc2cc(-c3cccs3)ccc2N)nc1 (stereo not shown) [Compound 113, N-[2-amino-5-(2-thienyl)phenyl]-5-(methylsulfonimidoyl)pyridine-2-carboxamide] | < 100 | 500 to 2000 |
| N=S(=O)(c1ccc(C(=O)Nc2cc(-c3ccc(F)cc3)ccc2N)cc1)c1ccc(F)c(F)c1 (stereo not shown) [Compound 221, N-[2-amino-5-(4-fluorophenyl)phenyl]-4-[(3,4-difluorophenyl)sulfonimidoyl]benzamide] | < 100 | 500 to 2000 |
| Nc1ccc(-c2ccc(F)cc2)cc1NC(=O)c1ccc([S@]2(=O)=N[C@@H](c3ccccc3)CC2)cc1 (racemic) [Compound 196, rac-N-(4-amino-4′-fluoro-[1,1′-biphenyl]-3-yl)-4-((1S,3R)-1-oxido-3-phenyl-4,5-dihydro-3H-1λ^6-isothiazol-1-yl)benzamide] | < 100 | > 2000 |
| CS(=N)(=O)c1cnc2cc(C(=O)Nc3cc(-c4ccc(F)cc4)ccc3N)sc2c1 (stereo not shown) [Compound 200, N-[2-amino-5-(4-fluorophenyl)phenyl]-6-(methylsulfonimidoyl)thieno[3,2-b]pyridine-2-carboxamide] | < 100 | 500 to 2000 |
| CS(=N)(=O)c1ccc(C(=O)Nc2cc(-c3ccc(F)cc3F)ccc2N)cc1 (stereo not shown) [Compound 117, N-[2-amino-5-(2,4-difluorophenyl)phenyl]-4-(methylsulfonimidoyl)benzamide] | < 100 | > 2000 |
| Cn1cncc1S(=N)(=O)c1ccc(C(=O)Nc2cc(-c3ccc(F)cc3)ccc2N)cc1 (stereo not shown) [Compound 242, N-[2-amino-5-(4-fluorophenyl)phenyl]-4-[(3-methylimidazol-4-yl)sulfonimidoyl]benzamide] | < 100 | 500 to 2000 |
| CS(=N)(=O)c1ccc(C(=O)Nc2cc(C#CC3CC3)ccc2N)cc1 (stereo not shown) [Compound 155, N-[2-amino-5-(2-cyclopropylethynyl)phenyl]-4-(methylsulfonimidoyl)benzamide] | > 2000 | > 2000 |
| Cc1ncc(S(=N)(=O)c2ccc(C(=O)Nc3cc(-c4ccc(F)cc4)ccc3N)cc2)[nH]1 (stereo not shown) [Compound 217, N-[2-amino-5-(4-fluorophenyl)phenyl]-4-[(2-methyl-1H-imidazol-5-yl)sulfonimidoyl]benzamide] | < 100 | 100 to 500 |
| N=S(=O)(c1ccc(C(=O)Nc2cc(-c3ccc(F)cc3)ccc2N)cc1)c1ccc(=O)[nH]c1 (stereo not shown) [Compound 192, N-[2-amino-5-(4-fluorophenyl)phenyl]-4-[(6-oxo-1H-pyridin-3-yl)sulfonimidoyl]benzamide] | < 100 | 500 to 2000 |
| N=S(=O)(c1ccc(C(=O)Nc2cc(-c3ccc(F)cc3)ccc2N)cc1)C1CC1 (racemic) [Compound 111, rac-N-[2-amino-5-(4-fluorophenyl)phenyl]-4-(cyclopropylsulfonimidoyl)benzamide] | < 100 | 500 to 2000 |
| CS(=N)(=O)c1ccc(C(=O)Nc2cc(-c3ccccn3)ccc2N)cc1 (stereo not shown) [Compound 119, N-[2-amino-5-(2-pyridyl)phenyl]-4-(methylsulfonimidoyl)benzamide] | 100 to 500 | > 2000 |
| N=S(=O)(c1ccc(C(=O)Nc2cc(-c3ccc(F)cc3)ccc2N)cc1)c1ncc[nH]1 (stereo not shown) [Compound 257, N-[2-amino-5-(4-fluorophenyl)phenyl]-4-(1H-imidazol-2-ylsulfonimidoyl)benzamide] | < 100 | 100 to 500 |
| C=C(C)c1cncc(S(=N)(=O)c2ccc(C(=O)Nc3cc(-c4ccc(F)cc4)ccc3N)cc2)c1 (stereo not shown) [Compound 225, N-[2-amino-5-(4-fluorophenyl)phenyl]-4-[(5-isopropenyl-3-pyridyl)sulfonimidoyl]benzamide] | < 100 | 500 to 2000 |
| CS(=N)(=O)c1ccc(C(=O)Nc2cc(-c3ccc(F)cc3)ccc2N)cn1 (stereo not shown) [Compound 129, N-[2-amino-5-(4-fluorophenyl)phenyl]-6-(methylsulfonimidoyl)pyridine-3-carboxamide] | < 100 | 500 to 2000 |
| CS(=N)(=O)c1ccc2oc(C(=O)Nc3cc(-c4ccc(F)cc4)ccc3N)cc2c1 (stereo not shown) [Compound 171, N-(4-amino-4′-fluoro-[1,1′-biphenyl]-3-yl)-5-(S-methylsulfonimidoyl)benzofuran-2-carboxamide] | < 100 | 100 to 500 |
| N=[S@@](=O)(c1ccc(C(=O)Nc2cc(-c3ccc(F)cc3)ccc2N)cc1)c1cncnc1 (single isomer, unassigned) [Compound 181] | < 100 | 500 to 2000 |
| CS(=N)(=O)C1(c2ccc(C(=O)Nc3cc(-c4cccs4)ccc3N)cc2)CC1 (stereo not shown) [Compound 140, N-[2-amino-5-(2-thienyl)phenyl]-4-[1-(methylsulfonimidoyl)cyclopropyl]benzamide] | < 100 | 500 to 2000 |
| C[S@@](=N)(=O)c1ccc(C(=O)Nc2cc(-c3ccc(F)s3)ccc2N)cc1 [Compound 144, (R)—N-[2-amino-5-(5-fluoro-2-thienyl)phenyl]-4-(methylsulfonimidoyl)benzamide] | < 100 | 500 to 2000 |
